The values that follow come from paper PMC3047451 (Journal of medicinal chemistry, 2011).

Each structure is given as a SMILES string. “Also recorded” adds a separate entry of the source. Where two headings read alike, the source gives them in different places.

The target of one experiment is δ-opioid receptor (Homo sapiens, UniProt P41143). In words: biochemical. It is filed as binding.
Experiment [1] deals with T1, cloned human μ-opioid receptor (Homo sapiens, UniProt P35372). To be noted: for fold more potent than naloxone as μ-antagonist: [35S]GTP-γ-S functional binding assay; for μ-antagonist potency compared with naloxone or naltrexone (in words): [35S]GTP-γ-S assay; for Ke: shift of DAMGO dose-response curve by test agent, hMOR-CHO membranes, ± SD. On the technique in general: GTPγS resists hydrolysis and so accumulates on activated G proteins.

A further experiment has as its target κ-opioid receptor (Homo sapiens, UniProt P41145). The experiment in a line: biochemical. Format: binding.
Experiment [2] addresses T2, μ-opioid receptor (Homo sapiens, UniProt P35372). The experiment in a line: biochemical.
Experiment [3] concerns the target T1, cloned human μ-opioid receptor. The experiment in a line: biochemical.
The target is the same in experiment [4]. The note with it: full inverse agonist curve; cited from earlier work.
Experiment [5] addresses T2, μ-opioid receptor. The note with it: for Ki: read-out: Ki, μ.
In experiment [6] the target is T1, cloned human μ-opioid receptor. The note with it: 10 μM, non-dependent hMOR cells.
Setting [7] is: read-out: Ki, δ, 125I-IOXY, hDOR-CHO, n = 3 (± SD).

Sequence of κ-opioid receptor (P41145 whole entry): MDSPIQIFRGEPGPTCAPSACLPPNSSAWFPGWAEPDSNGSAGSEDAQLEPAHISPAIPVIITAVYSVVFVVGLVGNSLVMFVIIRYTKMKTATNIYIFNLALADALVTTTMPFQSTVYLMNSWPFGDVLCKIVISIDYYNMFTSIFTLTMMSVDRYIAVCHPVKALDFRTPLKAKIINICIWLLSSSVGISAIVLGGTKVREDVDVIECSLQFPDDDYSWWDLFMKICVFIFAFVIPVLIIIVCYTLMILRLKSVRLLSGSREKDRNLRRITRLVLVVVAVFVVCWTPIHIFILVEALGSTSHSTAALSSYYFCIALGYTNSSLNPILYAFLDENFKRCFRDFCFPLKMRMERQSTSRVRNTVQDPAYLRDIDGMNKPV
T1 sequence (P35372 whole entry): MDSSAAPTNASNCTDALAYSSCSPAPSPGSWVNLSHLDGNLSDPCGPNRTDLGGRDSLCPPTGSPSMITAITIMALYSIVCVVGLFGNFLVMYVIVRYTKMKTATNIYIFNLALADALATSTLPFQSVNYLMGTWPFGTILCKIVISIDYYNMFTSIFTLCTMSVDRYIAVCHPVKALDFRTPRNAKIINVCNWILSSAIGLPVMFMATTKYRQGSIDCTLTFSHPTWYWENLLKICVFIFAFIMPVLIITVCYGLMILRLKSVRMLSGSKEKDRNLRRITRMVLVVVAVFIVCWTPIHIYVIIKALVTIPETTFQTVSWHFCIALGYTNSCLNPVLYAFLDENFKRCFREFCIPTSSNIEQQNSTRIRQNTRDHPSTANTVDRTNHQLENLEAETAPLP
T2 sequence (P35372 whole entry): as above
Sequence of δ-opioid receptor (P41143 whole entry): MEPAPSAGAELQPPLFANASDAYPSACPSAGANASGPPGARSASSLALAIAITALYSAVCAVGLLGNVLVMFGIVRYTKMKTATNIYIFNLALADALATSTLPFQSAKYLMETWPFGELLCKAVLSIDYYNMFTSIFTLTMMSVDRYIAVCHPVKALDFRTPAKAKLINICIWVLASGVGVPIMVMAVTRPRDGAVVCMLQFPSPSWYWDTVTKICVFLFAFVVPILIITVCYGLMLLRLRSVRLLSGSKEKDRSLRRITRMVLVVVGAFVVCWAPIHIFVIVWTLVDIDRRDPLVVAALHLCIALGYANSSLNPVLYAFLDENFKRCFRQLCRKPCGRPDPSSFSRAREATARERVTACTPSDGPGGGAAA

With `Oc1cccc([C@@]23CCC[C@@H](C2)N(CC=Cc2ccccc2)CC3)c1` [(+)−6, 3-((1S,5R)-2-Cinnamyl-2-azabicyclo[3.3.1]nonan-5-yl)phenol], the values for the inhibitory constant (Ki) on δ-opioid receptor, on κ-opioid receptor and at μ-opioid receptor [2] were 138 ± 5 nM, 125 ± 3 nM and 2 ± 0.13 nM, respectively. Moreover, the “fold more potent than naloxone as μ-antagonist” value in experiment [1] is on record as 4 fold. The Kb in experiment [3] was determined as 0.58 ± 0.07 nM.
Consider `Oc1cccc([C@@]23CCC[C@@H](C2)N(C/C=C\c2ccccc2)CC3)c1` [(+)−9, 3-((1S,5R)-2-((Z)-3-phenylallyl)-2-azabicyclo[3.3.1]nonan-5-yl)phenol], for which the “inverse agonist activity at non-dependent μ-opioid receptors” value in experiment [4] is given as “inverse agonist”. In addition, the inhibition constant Ki at δ-opioid receptor worked out at 454 ± 25 nM; at κ-opioid receptor, 123 ± 4 nM; at μ-opioid receptor [2] it was 26 ± 2 nM. Besides, the “μ-antagonist potency compared with naloxone or naltrexone (in words)” value in experiment [1] is “about as potent as naloxone”. This molecule yielded a Kb in experiment [3] of 3.1 ± 0.7 nM.
In the case of `Oc1cccc([C@]23CCC[C@H](C2)N(C[C@H]2C[C@@H]2c2ccccc2)CC3)c1` [(+)−29, 3-((1R,5S)-2-(((1’S,2’S)-2-Phenylcyclopropyl)methyl)-2-azabicyclo[3.3.1]nonan-5-yl)phenol], the Ki turned out to be 165 ± 7 nM on δ-opioid receptor (setting [7]); 72 ± 4 nM at κ-opioid receptor (read-out: Ki, κ); 3 ± 0.26 nM on μ-opioid receptor [5]. For the same molecule, the Ke in experiment [1] was 0.17 ± 0.02 nM.
For `Oc1cccc([C@@]23CCC[C@@H](C2)N(C[C@H]2C[C@@H]2c2ccccc2)CC3)c1` [(+)−30, 3-((1S,5R)-2-(((1’S,2’S)-2-Phenylcyclopropyl)methyl)-2-azabicyclo[3.3.1]nonan-5-yl)phenol], the Ki came out at 183 ± 7 nM at δ-opioid receptor (setting [7]); 323 ± 15 nM on κ-opioid receptor (read-out: Ki, κ); 16 ± 1 nM on μ-opioid receptor [5]. Moreover, the “μ-antagonist potency compared with naloxone or naltrexone (in words)” value in experiment [1] is on record as “equipotent with naloxone; also recorded: about as potent as naloxone”. In experiment [1], the Ke is recorded as 2.2 ± 0.4 nM.
As to `Oc1cccc([C@]23CCC[C@H](C2)N(C[C@H]2C[C@H]2c2ccccc2)CC3)c1` [(+)−31, 3-((1R,5S)-2-(((1’S,2’R)-2-Phenylcyclopropyl)methyl)-2-azabicyclo[3.3.1]nonan-5-yl)phenol], the inhibition constant Ki on δ-opioid receptor (setting [7]) was 1980 ± 54 nM; at κ-opioid receptor (read-out: Ki, κ), 475 ± 33 nM; at μ-opioid receptor [5], 459 ± 14 nM. Moreover, the Ke in experiment [1] is reported as 33 ± 7 nM. Also, on μ-opioid receptor [5], the “fold difference in μ Ki between the cis stereoisomers” value is on record as roughly 42 fold.
Consider `Oc1cccc([C@@]23CCC[C@@H](C2)N(C[C@H]2C[C@H]2c2ccccc2)CC3)c1` [(+)−32, 3-((1S,5R)-2-(((1’S,2’R)-2-Phenylcyclopropyl)methyl)-2-azabicyclo[3.3.1]nonan-5-yl)phenol], for which the Ki is 547 ± 23 nM at δ-opioid receptor (setting [7]); 174 ± 12 nM at κ-opioid receptor (read-out: Ki, κ); 76 ± 0.3 nM at μ-opioid receptor [5]. Further, in experiment [1], the Ke was 18 ± 6 nM.
As for `Oc1cccc([C@]23CCC[C@H](C2)N(CC=Cc2ccccc2)CC3)c1` [(−)−6, 3-((1R,5S)-2-Cinnamyl-2-azabicyclo[3.3.1]nonan-5-yl)phenol], the figures for the Ki on δ-opioid receptor, on κ-opioid receptor and at μ-opioid receptor [2] were 152 ± 5 nM, 225 ± 7 nM and 6 ± 0.39 nM, respectively. Further, in experiment [1], the “μ-antagonist potency compared with naloxone or naltrexone (in words)” value is on record as “four fold less active as opioid antagonists”. In addition, the “inverse agonist activity (effect on [35S]GTP-γ-S binding)” value in experiment [6] is “little or no activity as an inverse agonist; also recorded: did not act as inverse agonists”. Moreover, the Kb in experiment [3] was found to be 6.6 ± 0.7 nM.
`Oc1cccc([C@]23CCC[C@H](C2)N(C/C=C\c2ccccc2)CC3)c1` [(−)−9, 3-((1R,5S)-2-((Z)-3-phenylallyl)-2-azabicyclo[3.3.1]nonan-5-yl)phenol]: the inhibitory constant (Ki) at δ-opioid receptor amounted to 359 ± 18 nM; on κ-opioid receptor, 367 ± 18 nM; at μ-opioid receptor [2], 14 ± 0.7 nM. The same molecule yielded a Kb in experiment [3] of 7.7 ± 1.6 nM.
For `Oc1cccc([C@@]23CCC[C@@H](C2)N(C[C@@H]2C[C@H]2c2ccccc2)CC3)c1` [(−)−29, 3-((1S,5R)-2-(((1’R,2’R)-2-Phenylcyclopropyl)methyl)-2-azabicyclo[3.3.1]nonan-5-yl)phenol], the Ki at δ-opioid receptor (setting [7]) amounted to 800 ± 29 nM; at κ-opioid receptor (read-out: Ki, κ) it was 390 ± 16 nM; at μ-opioid receptor [5] it was 47 ± 3 nM. Moreover, the Ke in experiment [1] worked out at 9.4 ± 1.5 nM.
With `Oc1cccc([C@]23CCC[C@H](C2)N(C[C@@H]2C[C@H]2c2ccccc2)CC3)c1` [(−)−30, 3-((1R,5S)-2-(((1’R,2’R)-2-Phenylcyclopropyl)methyl)-2-azabicyclo[3.3.1]nonan-5-yl)phenol], the inhibitory constant (Ki) at δ-opioid receptor (setting [7]) was determined as 200 ± 10 nM. In experiment [1], the “μ-antagonist potency compared with naloxone or naltrexone (in words)” value was “about equipotent with naltrexone”, the “fold more potent than naloxone as μ-antagonist” value is reported as 7 fold and the Ke amounted to 0.31 ± 0.06 nM. Besides, on κ-opioid receptor (read-out: Ki, κ), the inhibition constant Ki amounted to 210 ± 13 nM. The inhibition constant (Ki) at μ-opioid receptor [5] was determined as 4 ± 0.27 nM.
On to `Oc1cccc([C@@]23CCC[C@@H](C2)N(C[C@@H]2C[C@@H]2c2ccccc2)CC3)c1` [(−)−31, 3-((1S,5R)-2-(((1’R,2’S)-2-Phenylcyclopropyl)methyl)-2-azabicyclo[3.3.1]nonan-5-yl)phenol], for which the Ki at δ-opioid receptor (setting [7]) turned out to be 610 ± 25 nM; on κ-opioid receptor (read-out: Ki, κ) it was 153 ± 7 nM; at μ-opioid receptor [5] it was 265 ± 17 nM. For the same molecule, the Ke in experiment [1] is recorded as 8.6 ± 1.9 nM.
Regarding `Oc1cccc([C@]23CCC[C@H](C2)N(C[C@@H]2C[C@@H]2c2ccccc2)CC3)c1` [(−)−32, 3-((1R,5S)-2-(((1’R,2’S)-2-Phenylcyclopropyl)methyl)-2-azabicyclo[3.3.1]nonan-5-yl)phenol], the inhibition constant (Ki) was 196 ± 6 nM at δ-opioid receptor (setting [7]); 322 ± 22 nM on κ-opioid receptor (read-out: Ki, κ); 11 ± 0.9 nM on μ-opioid receptor [5]. For the same molecule, the “μ-antagonist potency compared with naloxone or naltrexone (in words)” value in experiment [1] is “four fold less active as opioid antagonists”. The Ke in experiment [1] is given as 8.2 ± 1.8 nM. Besides, the “inverse agonist activity (effect on [35S]GTP-γ-S binding)” value in experiment [6] is “did not act as inverse agonists”.

Broadly, the Ki is a measure of affinity in units of concentration, obtained from inhibition or displacement.
